Assay in all cases: inhibition of tumour cell growth, NCI panel, 48 h
For experiment [1], the system named is HOP-62.
Experiment [2] has as its system NCI-H23.
The subject of experiment [3] is OVCAR-3.
The test system of experiment [4] is IGROV-1.
The test system of experiment [5] is COLO 205.
Experiment [6] relates to CAKI-1.
Experiment [7] deals with A498.
The test system of experiment [8] is M14.
Experiment [9] has as its system EKVX.
In experiment [10] the test system is OVCAR-5.
Experiment [11] has as its system HL-60.
Experiment [12] concerns SNB-19.
The subject of experiment [13] is TK-10.
The subject of experiment [14] is MOLT-4.
The subject of experiment [15] is Malme-3M.
The subject of experiment [16] is K562.
Experiment [17] concerns KM12.
Experiment [18] relates to HCT-15.
Experiment [19] has as its system SK-OV-3.
The subject of experiment [20] is DMS-114.

SMILES strings stand for the structures. Values joined by “and” are separate entries in the source; they are usually repeats but may differ in a detail not shown here. Identical values can stand only once.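 In this assay, cells in 96-well plates receive the compound at five concentrations for 48 hours. Endpoints are linearly interpolated between the surrounding concentrations. GI50 is the concentration that inhibits growth by half.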 Active and inactive are the calls of the source. Rule as the data show it: active = GI50 up to about 1.1 µM and inactive = higher. Where a SMILES comes first, the peptide text is derived from it. [ ]: non-standard residue; d: D form. The star is where a group is joined. Iva = CC[C](C)(N)C(=O)O; Boc = CC(C)(C)OC(=O)*; X54 = C1CCC(=NO*)C1

Regarding `CC(Oc1ccc(Oc2cnc3ccc(Cl)cc3n2)cc1)C(=O)O` (stereo not drawn), the GI50 in [1] is > 99.3 µM (inactive); in experiment [2], > 100 µM (inactive); in experiment [3], > 100 µM (inactive); in [4], 37.4 µM (inactive) and 47.4 µM (inactive); in experiment [5], > 70 µM (inactive); in experiment [6], > 100 µM (inactive). Besides, the GI50 in [7] was > 80.4 µM (inactive); in experiment [8], > 100 µM (inactive); in experiment [9], > 100 µM (inactive); in experiment [10] it was > 100 µM (inactive); in [11], > 100 µM (inactive); in [12], > 100 µM (inactive). Besides, the GI50 was > 100 µM (inactive) in [13], 15.1 µM (inactive) in [14] and 79.3 µM (inactive) in [15].
`COC(=O)/C=C\Sc1ccn(/C=C\C(=O)OC)c(=S)n1`: the GI50 in [16] is 38.5 µM (inactive); in experiment [1] it was 17.1 µM (inactive); in experiment [2], 25.8 µM (inactive); in experiment [3], 13.8 µM (inactive); in [4], 16.9 µM (inactive); in experiment [17] it was 12.4 µM (inactive). In addition, the GI50 in [5] was 66.5 µM (inactive); in experiment [6] it was 16.6 µM (inactive); in experiment [7] it was 20.2 µM (inactive); in experiment [8], 49.9 µM (inactive); in experiment [9], 26.2 µM (inactive); in [10], 38.5 µM (inactive). Besides, the GI50 was > 100 µM (inactive) in [11]; 21.8 µM (inactive) in experiment [12]; 27.9 µM (inactive) in experiment [13]; 16.7 µM in experiment [18]; 22.4 µM (inactive) in [15].
As to `CCC(C)(NC(=O)C(C)NC(=O)OC(C)(C)C)C(=O)NC(C)C(=O)NC(C)(CC)C(=O)ON=C1CCCC1` (stereo not drawn) (Boc-A[Iva]A[Iva]-X54; configuration not given here), the GI50 in experiment [16] is 31.1 µM (inactive); in [1], > 100 µM (inactive); in experiment [2], > 100 µM (inactive); in experiment [3] it was > 100 µM (inactive); in [4] it was > 100 µM (inactive); in experiment [17], > 100 µM (inactive). Moreover, the GI50 in experiment [5], in experiment [6], in experiment [7], in experiment [8], in experiment [10] and in [11] was > 100 µM (inactive) in each case. The GI50 was > 100 µM (inactive) in [12]; > 100 µM in experiment [18]; 29.9 µM (inactive) in [14]; > 100 µM (inactive) in [19]; > 100 µM (inactive) in experiment [15].
Take `COc1ncnc2c(Cl)c(C(O)c3ccccc3)c(Cl)cc12` (stereo not drawn): the GI50 in [16] is 14.9 µM (inactive); in [1] it was 15.2 µM (inactive); in experiment [2], 41.6 µM (inactive); in [3] it was 43.8 µM (inactive); in experiment [4], 29.3 µM (inactive); in experiment [17], 26.7 µM (inactive). Also, the GI50 in experiment [5] is 29.4 µM (inactive); in experiment [6], 34.7 µM (inactive); in [7], 19.7 µM (inactive); in experiment [8] it was 23.9 µM (inactive); in experiment [9], 30.5 µM (inactive); in [10] it was 60.5 µM (inactive). Also, the GI50 was 27.5 µM (inactive) in experiment [11]; 26.6 µM (inactive) in [12]; 23 µM (inactive) in experiment [13]; 24.6 µM in experiment [18]; 24 µM (inactive) in [14]; 19.5 µM (inactive) in experiment [19]. In experiment [15], the GI50 is 34.6 µM (inactive).
In the case of `OC(c1ccc(Br)cc1)(c1cccs1)C1CC1` (stereo not drawn), the GI50 was 29.9 µM (inactive) in experiment [16]; 23.3 µM (inactive) in [1]; 22.4 µM (inactive) in [2]; 18.8 µM (inactive) in experiment [3]; 15.7 µM (inactive) in experiment [4]; 17.7 µM (inactive) in experiment [17]. For the same molecule, the GI50 was 19.2 µM (inactive) in experiment [5]; 20.8 µM (inactive) in experiment [6]; 21.5 µM (inactive) in experiment [7]; 21.1 µM (inactive) in experiment [8]; 31.3 µM (inactive) in experiment [9]; 26.7 µM (inactive) in [10]. Moreover, the GI50 in experiment [11] was 20.8 µM (inactive); in experiment [12], 41.1 µM (inactive); in experiment [13] it was 27.9 µM (inactive); in experiment [18], 25.4 µM; in experiment [14] it was 22.1 µM (inactive); in experiment [19], 36.4 µM (inactive). Besides, the GI50 in [15] was 20.5 µM (inactive).
As for `O=C1C(Cl)N(c2ccc(Cl)cc2)C1c1c[nH]c2ccccc12` (stereo not drawn), the GI50 in experiment [16] was 16.7 µM (inactive); in experiment [1], 17.7 µM (inactive); in experiment [2], 18.4 µM (inactive); in [3], 17.6 µM (inactive); in experiment [4], 16.7 µM (inactive); in experiment [17], 27 µM (inactive). Besides, the GI50 in [5] is 22.5 µM (inactive); in [8], 18.2 µM (inactive); in experiment [9] it was 16.9 µM (inactive); in [11] it was 15.8 µM (inactive); in experiment [12] it was 18.2 µM (inactive); in [13], 19.8 µM (inactive). Further, the GI50 was 14.2 µM (inactive) in experiment [20], 14.7 µM (inactive) in [14], > 10 µM (inactive) in [19] and 12.5 µM (inactive) in experiment [15].
Turning to `O=C1CCC[C@]2(CCC[C@@H](O)C2)N1`, the GI50 in experiment [16], in [1], in experiment [3], in [4], in [17] and in experiment [5] was > 100 µM (inactive) throughout. In addition, the GI50 in experiment [6], in experiment [8], in experiment [9], in [10], in experiment [11] and in experiment [12] was > 100 µM (inactive) throughout. Besides, the GI50 was > 100 µM (inactive) in experiment [13]; > 100 µM in experiment [18]; > 10 µM (inactive) in experiment [14]; > 100 µM (inactive) in experiment [19]; > 100 µM (inactive) in experiment [15].
In the case of `COc1cc(C(O)(CC#N)c2cc3c(cc2Br)OCO3)cc(OC)c1OC` (stereo not drawn), the GI50 in [16] was 48 µM (inactive); in experiment [1], 1.63 µM (inactive); in experiment [2] it was 51.9 µM (inactive); in [3], 18 µM (inactive); in [4], 20.9 µM (inactive); in experiment [17] it was 21 µM (inactive). Also, the GI50 in experiment [5] is 37.6 µM (inactive); in [6] it was 29.1 µM (inactive); in experiment [8], 4.62 µM (inactive); in experiment [9], 54.1 µM (inactive); in [10], 17.4 µM (inactive); in experiment [12] it was 27.1 µM (inactive). The figures for the GI50 in experiment [13], in experiment [14] and in experiment [19] were 42.8 µM (inactive), 56 µM (inactive) and 24.4 µM (inactive), respectively.
As to `COc1ccc(/C=N/n2cnc3c(c2=O)SC(=C(C#N)C#N)N3c2ccccc2)cc1`, the GI50 is > 100 µM (inactive) in experiment [16]; 86.5 µM (inactive) in experiment [1]; > 100 µM (inactive) in experiment [2]; > 100 µM (inactive) in [3]; > 100 µM (inactive) in experiment [4]; > 100 µM (inactive) in experiment [17]. Besides, the GI50 in experiment [5], in experiment [10], in [11], in experiment [12], in experiment [13] and in experiment [14] was > 100 µM (inactive) in each case. Also, the GI50 in experiment [19] is > 100 µM (inactive).

Values taken from ChEMBL document CHEMBL1201862, “PubChem BioAssay data set” (2004).
